Here are results for eight molecules from patent publication US9783513B2, “STAT3 inhibitors and their anticancer use” (Ohio State Innovation Foundation, priority 2012, dated 2017).

“Also recorded” adds a separate entry of the source. Read-outs that look alike come from different tables or passages of the source.

For experiment [1], the system named is human sarcoma cell line U2OS. Kind of experiment: Cell viability (MTT) assay, U2OS. It is filed as cell-based. As to the method:
(§1) Human sarcoma cell lines (RD2, RH30, U2OS) were seeded in 96-well plates at a density of 3,000 cells per well. The cells were incubated at 37° C. for a period of 24 hours. Different concentrations of LY-5 (0.1-10 μM), LY-3 (0.1-20 μM), and LLL12 (0.1-10 μM) prepared as a 20 mM stock solution in sterile DMSO were added in triplicate to the plates in the presence of 10% FBS. 3-(4,5-Dimethylthiazolyl)-2, 5-diphenyltetrazoliumbromide (MTT) was added to evaluate cell viability. The absorbance was read at 595 nm. IC50 values were determined using SigmaPlot 9.0 Software (Systat Software, Inc., San Jose, Calif.).
(§2) Alternatively, cells were seeded in 96-well plates in triplicate at a density of 3,000 cells per well and given 24 hours to adhere. Cells were then treated with varying concentrations of the inhibitors in the presence of 10% FBS. The cells were incubated for 72 hours at 37° C. 25 μl of MTT dye (Sigma, #M5655) was added to each sample and incubated for 3.5 hours. After this, 100 μl of N,N-dimethylformamide (Sigma, #D4551) solubilization solution was added to each well. The absorbance at 450 nm was read the following day. Half-Maximal inhibitory concentrations (IC50) were determined using Sigma Plot 9.0 software (Systat Software Inc.).
Table 6 below lists specific compounds as well as experimentally determined STAT3 activity in a cell-based assay. The STAT3 activity was determined using the cell viability assays with human sarcoma cell line U2OS as described above. The compounds in Table 6 were synthesized with methods identical or analogous to those described herein. The compound reference numbers (“Ref. No.”) in Table 6 correspond to the compound numbers used in Table 3.

Experiment [2] has as its target STAT3 (Homo sapiens, UniProt P40763). Kind of experiment: Microscale thermophoresis binding to STAT3. As to conditions: labeled STAT3 30 nM; LY17 1.52-50,000 nM. For orientation: MST reads how a fluorescent partner responds to local heating, with and without ligand.
Procedure: The method provides the dissociation constant, KD. The microscale thermophoresis experiments were carried out at NanoTemper Technologies, Inc. (Munich, Germany). In these experiments, the concentration of the NanoTemper-labeled STAT3 was kept constant (30 nM), while the concentration of the non-labeled binding partner (LY17) was varied between 1.52 nM-50,000 nM. After a short incubation the samples were loaded into MST standard glass capillaries and the MST-analysis was performed using the Monolith.NT115.
Experiment [3] has as its system STAT5. As to the kind of experiment: Western blot, STAT5 after OSM stimulation. In kind it is cell-based, human. As to conditions: MCF-7; 1 and 2.5 μM; OSM 50 ng/mL. As to the method: (§3) RH30 cells were treated with DMSO, LY-5 (0.25-1 μM) and LY-3 (0.5-2.5 μM) prepared as a 20 mM stock solution in sterile DMSO at 60% to 80% confluence in the presence of 10% FBS for 24 hours. The sarcoma cell line EW8 was treated with DMSO and LY-5 (0.5-2.5 μM) prepared as a 20 mM stock solution in sterile DMSO at 60% to 80% confluence in the presence of 10% FBS for 24 hours. MCF-7 cells and DAOY cells were treated with DMSO, 25-50 ng/ml of IL-6, LY-5 (0.25-1 μM) or LY-3 (0.5-2.5 μM) prepared as a 20 mM stock solution in sterile DMSO, protein expressions of P-STAT3 (Tyr705) and STAT3 were tested. DAOY cells were treated with DMSO, 50 ng/ml of IFN-γ, LY-5 (1-5 μM) prepared as a 20 mM stock solution in sterile DMSO, protein expressions of P-STAT3 (Tyr705) and STAT3 were tested. MCF-7 cells were treated with DMSO, 50 ng/ml of OSM, LY-5 (1-2.5 μM) or LLL12 (1-2.5 μM) prepared as a 20 mM stock solution in sterile DMSO, protein expressions of P-STAT3 (Tyr705), P-STAT1, P-STAT5, P-ERK (T202/Y204), P-AKT, STAT3 and STAT1 were tested.
MCF-7 breast cancer cells were seeded in 10 cm plates and allowed to adhere overnight. The following day, the cells were serum-starved. The cells were then left untreated or were treated with LY-5 and LLL12 (1 μM and 2.5 μM) prepared as a 20 mM stock solution in sterile DMSO or DMSO. […] The cells were harvested after 30 minutes and analyzed by Western blot.

For experiment [4], the system named is OSM induced STAT3 phosphorylation. As to the kind of experiment: Western blot, OSM induced STAT3 phosphorylation. As to conditions: MCF-7; 1-2.5 μM; OSM 50 ng/mL. In kind it is cell-based, human.
Experiment [5] deals with phosphorylated STAT3 (Tyr705). As to the kind of experiment: Western blot, constitutive STAT3 phosphorylation. In kind it is cell-based, human. As to conditions: RH30. Background: Immunoblotting shows a protein as a band on a membrane.
For experiment [6], the system named is IL-6 induced STAT3 phosphorylation. As to the kind of experiment: Western blot, IL-6 induced STAT3 phosphorylation. It is filed as cell-based, human. As to conditions: MCF-7; LY-3 0.5-2.5 μM, LY-5 0.25-1 μM; 5 h; IL-6 25 ng/mL. The procedure: as §3
The cells were harvested and lysed in cold radioimmunoprecipitation assay (RIPA) lysis buffer containing […] and phosphatase inhibitor cocktail, and were subjected to SDS-PAGE. Then they were transferred to PVDF membrane. Membranes were probed with primary antibodies (1:1,000) and horseradish peroxidase (HRP)-conjugated secondary antibody (1:10,000) (Cell Signaling Technology, Beverly, Mass.). Membranes were analyzed using Enhanced Chemiluminescence Plus reagents and scanned with the Storm Scanner (Amersham Pharmacia Biotech, Inc., Piscataway, N.J.).
MCF-7 breast cancer cells were seeded in 10 cm plates and allowed to adhere overnight. The following day, the cells were serum-starved. The cells were then left untreated or were treated with LY-5 (0.25-1 μM) and LY-3 (0.5-2.5 μM) prepared as a 20 mM stock solution in sterile DMSO or DMSO. After 5 hours, the untreated and LY-5 and LY-3 treated cells were stimulated by IL-6 (25 ng/mL). The cells were harvested after 30 minutes and analyzed by Western blot. DAOY medulloblastoma cancer cells were seeded in 10 cm plates and allowed to adhere overnight. The following day, the cells were serum-starved. The cells were then left untreated or were treated with LY-5 (1-5 μM) prepared as a 20 mM stock solution in sterile DMSO or DMSO. After 2 hours, the untreated and LY-5 treated cells were stimulated by IL-6 (25 ng/mL). The cells were harvested after 30 minutes and analyzed by Western blot.

In experiment [7] the test system is human sarcoma cell line RH30. Kind of experiment: Cell viability (MTT) assay, RH30. In kind it is cell-based. As to the method:
as §1, §2
(§4) Table 7 below lists specific compounds as well as experimentally determined STAT3 activity in a cell-based assay. The STAT3 activity was determined using the cell viability assays with human sarcoma cell lines (RD2, RH30, U2OS) as described above. The compound reference numbers (“Ref. No.”) in Table 7 correspond to the compound numbers used in Table 3.

For experiment [8], the system named is human sarcoma cell line RD2. As to the kind of experiment: Cell viability (MTT) assay, RD2. It is filed as cell-based. The procedure:
as §1, §2, §4

The mark [9] stands for this setting: Homo sapiens, Table 2, cell line not given, read-out: IC50.
Where [10] appears, read: Homo sapiens, Table 8, read-out: IC50 values vs. cell lines, U2OS.

Sequence of STAT3 (P40763 whole entry): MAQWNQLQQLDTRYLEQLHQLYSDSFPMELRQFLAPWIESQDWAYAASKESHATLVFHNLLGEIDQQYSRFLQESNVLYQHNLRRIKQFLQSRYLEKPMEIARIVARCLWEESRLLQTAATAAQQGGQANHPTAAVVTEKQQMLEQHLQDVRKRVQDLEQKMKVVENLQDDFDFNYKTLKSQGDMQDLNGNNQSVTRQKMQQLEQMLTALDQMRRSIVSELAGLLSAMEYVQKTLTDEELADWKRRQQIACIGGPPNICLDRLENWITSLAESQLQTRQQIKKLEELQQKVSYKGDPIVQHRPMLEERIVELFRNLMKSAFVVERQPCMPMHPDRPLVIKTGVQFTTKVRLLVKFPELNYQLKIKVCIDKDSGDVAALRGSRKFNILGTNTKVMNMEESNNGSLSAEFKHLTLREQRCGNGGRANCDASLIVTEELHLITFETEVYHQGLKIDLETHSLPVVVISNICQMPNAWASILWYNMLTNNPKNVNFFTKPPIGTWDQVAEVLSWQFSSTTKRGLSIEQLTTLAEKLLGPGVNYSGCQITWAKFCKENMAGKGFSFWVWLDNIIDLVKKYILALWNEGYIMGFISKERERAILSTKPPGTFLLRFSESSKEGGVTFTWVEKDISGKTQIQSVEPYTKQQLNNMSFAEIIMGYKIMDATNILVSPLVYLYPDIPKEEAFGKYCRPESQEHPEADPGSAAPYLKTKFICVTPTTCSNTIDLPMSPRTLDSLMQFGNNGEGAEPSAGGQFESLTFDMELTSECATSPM

With `O=C1C(Nc2ccccc2)=CC2=NS(=O)(=O)c3cccc1c32` [LY-2, 4-(Phenylamino)-5H-naphtho[1,8-cd]isothiazol-5-one 1,1-dioxide], the 50% inhibitory concentration (IC50) – broadly, the concentration that inhibits the measured activity by half – in experiment [1] (setting [9]) came out at 5000 nM.
“4-(naphthalen-2-ylamino)-5H-naphtho[1,8-cd]isothiazol-5-one 1,1-dioxide [LY-6]”: the concentration for half-maximal inhibition (IC50) in experiment [1] (Table 6, read-out: IC50) was found to be 2500 nM.
On to “5,8-dioxo-6-(phenylamino)-5,8-dihydronaphthalene-1-sulfonamide [LY-7]”, for which, in experiment [1] (Table 2, cell line not given, read-out: IC50), the half-inhibitory concentration (IC50) was determined as 2500 nM.
On to `NS(=O)(=O)c1cccc2c1C(=O)C=C(Nc1ccccc1N1CCNCC1)C2=O` [LY-17], for which binding in experiment [2] was put at a Kd of 2420 nM.
Take `NS(=O)(=O)c1cccc2c1C(=O)c1cccc(O)c1C2=O` [LLL12, 5-hydroxy-9,10-dioxo-9,10-dihydroanthracene-1-sulfonamide, reference compound]: the “inhibition of STAT5” value in experiment [3] is recorded as “exhibit inhibition”. Besides, in experiment [4], the “OSM induced STAT3 phosphorylation” value is “inhibit”. Also, the IC50 in experiment [1] (setting [10]) turned out to be 1000 nM. Further, the “STAT3 phosphorylation at Y705 and S727” value in experiment [5] (5 μM in DMSO or ethanol, 2 h) was “decrease in STAT3 phosphorylation at Y705 and S727”.
Consider `NC(=O)NS(=O)(=O)c1ccc(NC2=CC(=O)c3c(cccc3S(N)(=O)=O)C2=O)cc1` [LY-9], for which the IC50 in experiment [1] (setting [9]) is above 5000 nM.
As for `O=C1C(Nc2ccc([N+](=O)[O-])cc2Cl)=CC2=NS(=O)(=O)c3cccc1c32` [LY-3, 4-((2-chloro-4-nitrophenyl)amino)-5H-naphtho[1,8-cd]isothiazol-5-one 1,1-dioxide], the “IL-6 induced STAT3 phosphorylation” value in experiment [6] was “inhibit; also recorded: blocked the stimulation”. Besides, the concentration for half-maximal inhibition (IC50) in experiment [7] (Table 7, read-out: IC50 RH30) was 1140 nM; in experiment [7] (Table 8, read-out: IC50 values vs. cell lines, RH30), 1140 nM; in experiment [8] (Table 7, read-out: IC50 RD2), 2560 nM; in experiment [8] (Table 8, read-out: IC50 values vs. cell lines, RD2) it was 2560 nM; in experiment [1] (setting [9]), 1400 nM; in experiment [1] (Homo sapiens, Table 7, read-out: IC50 U2OS), 1390 nM. Moreover, the IC50 in experiment [1] (setting [10]) is 1390 nM. Moreover, the “concentration almost completely inhibiting Tyr705 phosphorylation” value in experiment [5] (16 h) turned out to be 1 µM. Moreover, the “constitutive STAT3 phosphorylation” value in experiment [5] (LY-3 0.5-2.5 μM, LY-5 0.25-1 μM, 16 h) is reported as “decrease in STAT3 phosphorylation; also recorded: reduced in a dose-dependent manner”.
`NS(=O)(=O)c1cccc2c1C(=O)C=C(Nc1ccccc1)C2=O` [LY-7, 5,8-dioxo-6-(phenylamino)-5,8-dihydronaphthalene-1-sulfonamide]: in experiment [1] (Homo sapiens, Table 6, read-out: IC50), the IC50 is above 5000 nM.
